Experimental data reported in patent US6169104A, “Di-aryl ethers and their derivatives as anti-cancer agents” (Large Scale Biology Corporation, priority 1998, dated 2001).
Read-outs that look alike come from different tables or passages of the source.

Assays:
[1] = tested on: angiogenesis induced by hFGF-B in the CAM; experiment: Chick chorioallantoic membrane (CAM) assay, 14C-proline incorporation into collagenous protein; assay type: in vivo, chick embryo
Procedure: BTO-964 [methyl 3,5-diiodo-4(4'-methoxyphenoxy) benzaldehyde], and BTO-967 [methyl 3,5-diiodo-4(4'-methoxyphenoxy)-thiobenzoate] were tested in the CAm assay. The endpoint of the CAM assay was a quantiative determination of basement membrane biosynthesis by measuring the incorporation of ^14 C-proline into Type IV collagenous protein.
The CAM assay involves the development of live chick embryos in Petri dishes under special sterile conditions. Therefore, only limited numbers of embryos can be used for evaluation of compounds in a single experiment. BTO-964 and BTO-967 was tested in separate assays. A known angiogenesis inhibitor, 2-methoxyestradiol (2-ME), was used as the positive control, and human fibroblast growth factor (hFGF) was used to induce angiogenesis in the CAM.
For testing, a minimum amount of acetone-methanol (1:1) was added to the test compounds for sterilization. The acetone-methanol mixture was then evaporated to dryness in a sterile hood. The compounds were dissolved in dimethyl sulfoxide (DMSO) first and then diluted with saline containing methylcellulose. The final concentrations were 2% DMSO and 0.5% methylcellulose. all test solutions were added to each CAM in […] aliquots.
Fresh fertile eggs were incubated for three days in a standard egg incubator. On Day 3, eggs were cracked under sterile conditions and embryos were placed in 20×100 mm plastic Petri dishes and cultivated at 37° C. in an embryo incubator with a water reservoir on the bottom shelf. Air was continuously bubbled into the water reservoir by using a small pump so that the humidity in the incubator was kept constant. Observations were made daily to ensure that all embryos were healthy. Dead or unhealthy embryos were removed from the incubator immediately to avoid contamination. On Day 9, a sterile silicone ring cup was placed on each CAM and 0.5 mCi of ^14 C-proline with or without the test compound plus 2.5 ng of hFGF dissolved in saline containing 0.5% methylcellulose was delivered into each ring cup in a sterile hood. 2-ME was tested in parallel to serve as a reference compound. After addition of test materials, the embryos were returned to the incubator and cultivation continued. On Day 12, all embryos were transferred to a cold room at 4-10° C.
Using the procedure outlined in Maragoudakis, et al., (1989) J. Pharm. Exp. Ther. 251:679-682, the embryos were placed on ice and a piece of CAM 10 mm in diameter was cut off under each ring cup and placed in a separate tube. To each tube was added 1.0 ml of phosphate-buffered saline (PBS, pH 7.3) containing 0.11 mg cycloheximide and 0.17 mg dipyridyl. The tubes were placed in a boiling water bath for 10 min and then cooled to room temperature. The PBS in each tube was discarded after centrifugation at 3000×G for 10 min. The CAM residue was washed once with 3 ml of 15% TCA and then three times with 3 ml of 5% TCA. Centrifugation was carried out as described above between each washing. At this point all non-protein bound radioactivity was removed, and the CAM containing the newly synthesized ^14 C-collagenous protein was suspended in 0.9 ml of 0.1 N NaOH and 1.1 ml of HEPES buffer at pH 7.4. The pH of the sample was neutralized with 0.8 N HCl, using phenol red as indicator.
To digest the ^14 C-collagenous protein, 7.5 units of collagenase and 500 nmol of calcium chloride in […] of HEPES buffer was added to the above samples, and mixtures were incubated at 37° C. for 4 h. The reaction was stopped by adding 1.0 ml of 20% TCA containing 5 mg of tannic acid into each tube. After vortex mixing, the samples were centrifuged at 3000×G for 10 min. An aliquot of the clear supernatant was taken for scintillation counting to quantitate the radiolabeled tripeptides corresponding to basement membrane collagen and other collagenous materials synthesized by the CAM from ^14 C-proline. The CAM pellets in each tube were solubilized in 0.5 ml of 1.0 N NaOH by boiling in a water bath for 5 min. […]

[2] = tested on: A549 (non-small cell lung); experiment: In vitro cytotoxicity screen, alamar Blue assay; assay type: cell-based; details: Homo sapiens
Procedure: (§1) Human tumor cell lines were exposed continuously to varying concentrations of test agents, i.e., BTO-956, BTO-964, BTO966 and BTO-967) and the viability of the cells was measured at set time points (1, 3, and 7 days) using the alamar Blue™ assay. […] This fluorescence can be measured with a fluorimeter, whereby the signal is directly proportional to cell number.
(§2) Various tumor cell lines of human origin representing a wide diversity of cancer pheno- and genotypes were exposed in vitro to the agents to evaluate the drug's effective range. Tumor lines screened included MDA MB 231 (breast), MCF-7 (breast), MDA MB 468 (breast), Siha (squamous cell carcinoma), A549 (non-small cell lung), HL-60 (leukemia), Ovcar-3 (ovarian). The test agents were prepared in serial dilutions from 10 mM stock solutions in DMSO yielding a 66-fold dose range of 20 μM, 10 μM, 3 μM, 1 μM and 0.3 μM concentrations. In each case, cells were maintained at 37° C. under 5 percent CO2 in air. All cell lines were incubated in Dulbecco's modified Eagle medium (DMEM) supplemented with 10% heat-inactivated fetal bovine serum and graded doses of BTO-956, 964, 966, or 967. 5-Fluorouracil (5-FU) was included as a positive control in experiments with two of the cell lines. The experiments were conducted in 96-well tissue culture plates (Falcon) with an initial seeding density of 1000 cells per well in 250 μl aliquots. The next day, medium was replaced with 100 μl of drug dilutions in triplicate.
(§3) After a 7 day exposure to the various agents, the alamarBlue dye was diluted to 20% in DMEM, and 100 μl was added to each well. The cells were incubated for 8 hours until obvious color changes indicated sufficient amounts of reduced dye for quantitation. Relative cell number was evaluated by florimetry on a Millipore 2300 CytoFluor fluorescence measurement system. Measurements were taken directly from 96-well plates after excitation at 560 nm with concomitant emission at 590 nm.

[3] = tested on: MDA MB 231 (breast); experiment: In vitro cytotoxicity screen, alamar Blue assay; assay type: cell-based; details: Homo sapiens
Procedure: as §1, §2, §3

[4] = tested on: Human leukemia (HL60) cells; experiment: In vitro metabolism in human leukemia cells with and without rat liver S9; assay type: cell-based; details: 4 hr incubation with vs without rat liver S9, cells counted 3 days later (FIG. 2)
Procedure: FIG. 2 illustrates the in vitro metabolism of BTO-956, 964, 966, and 967 in human leukemia cells. In this experiments, human leukemia cells (HL60) were incubated for 4 hours in the presence of BTO-956, BTO-964, BTO-966 or BTO-967, with (closed symbols) and without (open symbols) rat liver microsome fraction S9. Following the 4 hr exposure to drug and S9, the cells were rinsed and replated at a density of 2×10^5 cells per ml, and counted 3 days later.
To test for either of these possibilities, the compounds, i.e., BTO-956, BTO-964, BTO-966 and BTO-967, were incubated with a microsomal enzyme fraction, referred to as S9.
Human leukemia (HL60) cells were used to evaluate drug metabolism. Exposure to the test article was performed in the presence and absence of S9, prepared from the liver of adult male rats given a single intraperitoneal injection of Arachlor 1254 (500 mg/kg). The S9 consisted of the 9000×G supernatant of liver homogenized in 0.25 M sucrose-100 mM phosphate buffer (pH 7.4) (Molecular Toxicology, Inc.). Cofactors were 1 mM NADP and 5 mM sodium isocitrate. On the day of exposure, cultures of cells, with or without the metabolism mixture, were incubated for 4 hours in RPMI containing 5% FBS and graded doses of BTO956, 964, 966, or 967. The test agents were prepared in serial dilutions from 10 mM stock solutions in DMSO yielding a dose range 100 μM, 50 μM, 25 μM, 10 μM and 5 μM concentrations and a final DMSO concentration of 1%. In each case, cells were maintained at 37° C. under 5 percent CO2 in air. The experiments were conducted in 6-well tissue culture plates (Falcon) with an initial seeding density of 2×10^6 cells per well in 2 ml aliquots. The test compounds were added immediately to the medium in duplicate cultures. Treatment solution was removed by a series of low-speed centrifugations to pellet the cells, followed by removal of the supernatant and resuspension of cells in fresh RPMI containing 10% FBS.

[5] = tested on: Ovcar-3 (ovarian); experiment: In vitro cytotoxicity screen, alamar Blue assay; assay type: cell-based; details: Homo sapiens, 168 h, 7 days post exposure
Procedure: as §1, §2, §3

[6] = tested on: MDA MB 468 (breast); experiment: In vitro cytotoxicity screen, alamar Blue assay; assay type: cell-based; details: Homo sapiens, 168 h, 7 days post exposure
Procedure: as §1, §2, §3

[7] = tested on: Siha (squamous cell carcinoma); experiment: In vitro cytotoxicity screen, alamar Blue assay; assay type: cell-based; details: Homo sapiens, 168 h, 7 days post exposure
Procedure: as §1, §2, §3

[8] = tested on: MCF-7 (breast); experiment: In vitro cytotoxicity screen, alamar Blue assay; assay type: cell-based; details: Homo sapiens, MCF7, 168 h, 7 days post exposure
Procedure: as §1, §2, §3

[9] = tested on: TNF-α mRNA; experiment: cells; details: Mus musculus, Macrophage, 3 h, read-out: inhibition of TNF-α mRNA accumulation
Procedure: (§4) The murine macrophage PU5-1.8 cell line are purchased from the American Type Culture Collection (ATCC, Rockville, Md.). Cells are grown in DMEM medium supplemented with 100 mM sodium pyruvate, 0.1 mM nonessential amino acids, 2 mM glutamine and 5 % fetal bovine serum (Life Technologies, Staten Island, N.Y.). Cells are maintained in a humidified atmosphere of 5% CO2 -95% air at 37° C. Cells are passaged twice weekly by firmly tapping the side of the flask to dislodge the adherent cells. Both nonadherent and adherent cells are passaged. Exponentially growing cells are seeded at 5×10^5 /mL, 4 mL per 60-mm dish 24 h prior to the experiment. Test compounds are delivered in 1 mL volumes of the medium added to each dish at the start of the experiment. All dishes are incubated at 37° C. in 5% CO2 -95% air for 3 h.
(§5) The Tumor Necrosis Factor (TNF-α) cDNA is obtained from the ATCC (Rockville, Md.). [α-^32 P]-dCTP (250 μCi) and nylon membranes (Hybond N) are obtained from Amersham (Arlington Heights, Ill.). […] Lipopolysaccharide (LPS) from Escherichia coli is purchased from DIFCO Laboratories (Detroit, Mich.). All plastic supplies are purchased from VWR Scientific products (San Francisco, Calif.). […]
(§6) Hybridized bands are quantified by analyzing the images obtained by using a video densitometer (Applied Imaging Corporation, Santa Clara, Calif.). […]

[10] = tested on: TNF-α mRNA; details: 10 μM, without LPS
Procedure: as §4, §5, §6

[11] = 168 h, A549, 7 days post exposure, read-out: IC50
[12] = 168 h, MDA MB 231, 7 days post exposure, read-out: IC50

In the case of `COc1cc2c(cc1O)CC[C@@H]1[C@@H]2CC[C@]2(C)[C@@H](O)CC[C@@H]12` [2-Methoxyestradiol, 2-methoxyestradiol, reference compound], the “% Inhibition” value ([1]; 8.3 μg/CAM, BTO-964 experiment) is reported as 6%, the “14C-Proline Incorporated into Collagenous Protein (cpm/mg protein) (mean ± S.E.)” value ([1]; 8.3 μg/CAM, BTO-964 experiment, control 11200 ± 829) is reported as 10499 ± 1372 cpm/mg_protein and the “% Inhibition” value ([1]; 8.3 μg/CAM, BTO-967 experiment) is reported as 9%. The “14C-Proline Incorporated into Collagenous Protein (cpm/mg protein) (mean ± S.E.)” value ([1]; 8.3 μg/CAM, BTO-967 experiment, control 6300 ± 696) was 5711 ± 1469 cpm/mg_protein, the “% Inhibition” value ([1]; 25 μg/CAM, BTO-964 experiment) was 35% and the “14C-Proline Incorporated into Collagenous Protein (cpm/mg protein) (mean ± S.E.)” value ([1]; 25 μg/CAM, BTO-964 experiment, control 11200 ± 829) was 7303 ± 1424 cpm/mg_protein. For the same compound, the “% Inhibition” value ([1]; 25 μg/CAM, BTO-967 experiment) was 20%, the “14C-Proline Incorporated into Collagenous Protein (cpm/mg protein) (mean ± S.E.)” value ([1]; 25 μg/CAM, BTO-967 experiment, control 6300 ± 696) was 5068 ± 1609 cpm/mg_protein and the “% Inhibition” value ([1]; 75 μg/CAM, BTO-964 experiment) was 38%. For the same compound, the “14C-Proline Incorporated into Collagenous Protein (cpm/mg protein) (mean ± S.E.)” value ([1]; 75 μg/CAM, BTO-964 experiment, control 11200 ± 829) was 6984 ± 1022 cpm/mg_protein, the “% Inhibition” value ([1]; 75 μg/CAM, BTO-967 experiment) was 38% and the “14C-Proline Incorporated into Collagenous Protein (cpm/mg protein) (mean ± S.E.)” value ([1]; 75 μg/CAM, BTO-967 experiment, control 6300 ± 696) was 3875 ± 891 cpm/mg_protein.

Compound `O=c1[nH]cc(F)c(=O)[nH]1` [5-FU, 5-Fluorouracil, reference compound] has an IC50 ([2]; A549, 168 h) of 5.5 µM and an IC50 ([3]; MDA-MB-231, 168 h) of 10 µM.

`COC(=O)c1cc(I)c(Oc2ccc(OC)cc2)c(I)c1` [BTO-956, methyl 3,5-diiodo-4-(4'-methoxyphenoxy)benzoate] was tested, and the “effect of metabolism by S9 on activity” value [4] was “metabolized within the 4-hr incubation period to an inactive form”, the IC50 [2, 11] was 4 µM and the IC50 [5] was less than 0.3 µM. The IC50 [6] was 0.5 µM, the IC50 [7] was 0.5 µM and the IC50 [8] was 5 µM. For the same compound, the IC50 [3, 12] was 10 µM.

In the case of `COCc1cc(I)c(Oc2ccc(OC)cc2)c(I)c1` [BTO-966, 3,5-diiodo-4-(4'-methoxyphenoxy)benzyl methyl ether], the “effect of metabolism by S9 on activity” value [4] is reported as “activated to more cytotoxic products”, the IC50 [2, 11] is reported as greater than 30 µM and the IC50 [5] is reported as 6.9 µM. The IC50 [6] was 7.5 µM, the IC50 [7] was greater than 20 µM and the IC50 [8] was 7 µM. It also gave an IC50 [3, 12] of 10 µM.

With `COc1cc2c(c(OC)c1OC)-c1ccc(OC)c(=O)cc1[C@@H](NC(C)=O)CC2` [colchicine, Colchicine] the inhibition at 10 µM [9] was 68% and the “effect on TNF-α mRNA expression” value [10] was “no effect”.
